Reference: patent US20260022143A1, “Cyclic Peptide Inhibitors of IL-23” (JANSSEN PHARMACEUTICA NV, priority 2022, published 2026)
Starred links: 1 amine or outer side, 2 acyl side, 3 side chain; linkers in the order of their positions; H or OH if unused. Positions of bridges follow the written chain, without caps; N, C: chain ends. Non-standard residues stand in square brackets, D forms with d. Residues, ends and D or L forms follow the SMILES beside them. ξ: configuration not given here. *: point of attachment. Trp(7-(3-AcNH-Ph)) = CC(=O)Nc1cccc(-c2cccc3c(C[C@H](N)C(=O)O)c[nH]c23)c1; X6 = C[N+](C)(C)CCCCCCCc1cn(-c2ccc(C[C@H](N[*:1])C(=O)[*:2])cc2)nn1; Me3N+(CH2)2O(CH2)2O(CH2)2CO = C[N+](C)(C)CCOCCOCCC(=O)*; X39 = NCCc1cn(-c2ccc(C[C@H](N[*:1])C(=O)[*:2])cc2)nn1; Trp(7-Me) = Cc1cccc2c(C[C@H](N)C(=O)O)c[nH]c12; dLys(Me3) = C[N+](C)(C)CCCC[C@@H](N)C(=O)O; X15 = CC(=O)N(C)C[C@H](N[*:1])C(=O)[*:2]; 2Nal = N[C@@H](Cc1ccc2ccccc2c1)C(=O)O; 3Pal = N[C@@H](Cc1cccnc1)C(=O)O; Ethyl(2-guanidino) = N=C(N)NCC*; ξThr(3R) = C[C@@H](O)C(N)C(=O)O; Lys(Me) = CNCCCC[C@H](N)C(=O)O; Pen = CC(C)(S)[C@H](N)C(=O)O; X11 = N=C(N)NCCOCCOCCC(=O)*; Thp = NC1(C(=O)O)CCOCC1; X3 = C[N+](C)(C)CCCCC*; Sar = CNCC(=O)O

How the values were obtained:
[1] = Exposed Polar Surface Area (EPSA); type: physicochemical; settings: SFC on Chirex 3014 column; sample 1 mM DMSO stock; read-out: EPSA
Summary of the method: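 Chirex 3014 column, 35 °C, 4 mL/min; CO2/MeOH + 20 mM NH4 formate, 5→60% modifier at 20%/min. UV/MS detection. EPSA (Å^2) from retention time vs 8-standard calibration line; duplicates; 1 mM DMSO stock injected undiluted.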

[2] = biological target: T1, IL-23R (Homo sapiens, UniProt Q5VWK5); test: IL23R Reporter Assay; type: cell-based; settings: HEK293 cells containing IL-23R, IL-12RP1 and STAT-inducible firefly luciferase reporter; 10 ng/mL IL-23 (EC90); 5 h at 37° C.; read-out: IL23R Reporter Assay
T1 construct: host or cells: HEK293
T1 sequence (Q5VWK5 24-629): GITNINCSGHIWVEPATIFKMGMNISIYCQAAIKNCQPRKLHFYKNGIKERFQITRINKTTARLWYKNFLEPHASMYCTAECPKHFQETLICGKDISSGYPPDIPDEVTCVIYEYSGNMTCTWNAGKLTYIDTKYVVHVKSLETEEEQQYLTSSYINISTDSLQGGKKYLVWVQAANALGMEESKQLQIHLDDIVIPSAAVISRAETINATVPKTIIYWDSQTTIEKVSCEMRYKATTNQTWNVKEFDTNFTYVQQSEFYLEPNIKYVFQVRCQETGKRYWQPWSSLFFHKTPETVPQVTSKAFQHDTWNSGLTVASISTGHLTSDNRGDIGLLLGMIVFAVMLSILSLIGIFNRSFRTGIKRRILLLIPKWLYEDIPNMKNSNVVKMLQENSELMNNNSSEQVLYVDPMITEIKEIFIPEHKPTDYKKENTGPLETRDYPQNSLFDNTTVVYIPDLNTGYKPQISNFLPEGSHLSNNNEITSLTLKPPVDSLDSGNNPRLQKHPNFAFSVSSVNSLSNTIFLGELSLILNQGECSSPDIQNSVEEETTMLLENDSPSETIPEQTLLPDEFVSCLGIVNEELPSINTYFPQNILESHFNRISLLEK

EPSA [1] | IC50 [2] | SMILES
164 A^2 | 4.4 nM | CC(=O)N(C)CCCC[C@@H]1NC(=O)[C@H](Cc2c[nH]c3c(C)cccc23)NC(=O)[C@H]([C@@H](C)O)NC(=O)[C@H](CC(=O)N(C)C)NC(=O)[C@@H](NC(=O)CCOCCOCC[N+](C)(C)C)C(C)(C)SSC(C)(C)[C@@H](C(=O)N[C@@H](Cc2ccc(-n3cc(CCCCCCC[N+](C)(C)C)nn3)cc2)C(=O)N[C@@H](Cc2ccc3ccccc3c2)C(=O)NC2(C(=O)N[C@@H](CCCCN(C)C(C)=O)C(=O)N[C@@H](CC(N)=O)C(=O)N[C@@H](Cc3cccnc3)C(=O)N(C)CC(=O)N(C)C)CCOCC2)NC1=O [compound 486, cPEG3aCO-Pen(3)-N(N(Me)2)-T-7MeW-K(NMeAc)-Pen(3)-F(4TzlTMA7)-2Nal-THP-K(NMeAc)-N-3Pya-Sar-CON(Me)2] ({Me3N+(CH2)2O(CH2)2O(CH2)2CO}-[Pen]D(NMe2)T[Trp(7-Me)][Lys(Me)](Ac)[Pen][X6][2Nal][Thp][Lys(Me)](Ac)N[3Pal][Sar]-NMe2; disulfide 1-6)
148 A^2 | 4.4 nM | CC(=O)NCCCC[C@@H]1NC(=O)[C@H](Cc2c[nH]c3c(C)cccc23)NC(=O)[C@H]([C@@H](C)O)NC(=O)[C@H](CC(=O)N(C)C)NC(=O)[C@@H](NC(=O)CCOCCOCC[N+](C)(C)C)C(C)(C)SSC(C)(C)[C@@H](C(=O)N[C@@H](Cc2ccc(OCCCCC[N+](C)(C)C)cc2)C(=O)N[C@@H](Cc2ccc3ccccc3c2)C(=O)NC2(C(=O)N[C@@H](CN(C)C(C)=O)C(=O)N[C@@H](CC(N)=O)C(=O)N[C@@H](Cc3cccnc3)C(=O)N(C)CC(=O)N(C)C)CCOCC2)NC1=O [compound 415, cPEG3aCO-Pen(3)-N(N(Me)2)-T-7MeW-K(Ac)-Pen(3)-TMAPF-2Nal-THP-Dap(NMeAc)-N-3Pya-Sar-CON(Me)2] ({Me3N+(CH2)2O(CH2)2O(CH2)2CO}-[Pen]D(NMe2)T[Trp(7-Me)]K(Ac)[Pen]Y(X3)[2Nal][Thp][X15]N[3Pal][Sar]-NMe2; disulfide 1-6 (inferred))
153 A^2 | 2.1 nM | CNC(=O)C[C@@H]1NC(=O)[C@@H](NC(=O)CCOCCOCC[N+](C)(C)C)C(C)(C)SSC(C)(C)[C@@H](C(=O)N[C@@H](Cc2ccc(OCCCCC[N+](C)(C)C)cc2)C(=O)N[C@@H](Cc2ccc3ccccc3c2)C(=O)NC2(C(=O)N[C@@H](CCCCN(C)C(C)=O)C(=O)N[C@@H](CC(N)=O)C(=O)N[C@@H](Cc3cccnc3)C(=O)N(C)CC(=O)N(C)C)CCOCC2)NC(=O)[C@H](CCCCN(C)C(C)=O)NC(=O)[C@H](Cc2c[nH]c3c(C)cccc23)NC(=O)[C@H]([C@@H](C)O)NC1=O [compound 300, cPEG3aCO-Pen(3)-N(N(Me))-T-7MeW-K(NMeAc)-Pen(3)-TMAPF-2Nal-THP-K(NMeAc)-N-3Pya-Sar-CON(Me)2] ({Me3N+(CH2)2O(CH2)2O(CH2)2CO}-[Pen]D(NHMe)T[Trp(7-Me)][Lys(Me)](Ac)[Pen]Y(X3)[2Nal][Thp][Lys(Me)](Ac)N[3Pal][Sar]-NMe2; disulfide 1-6)
176 A^2 | 1.6 nM | CC(=O)NCCCC[C@@H]1NC(=O)[C@H](Cc2c[nH]c3c(C)cccc23)NC(=O)[C@H]([C@@H](C)O)NC(=O)[C@H](CC(N)=O)NC(=O)[C@@H](NC(=O)CCOCCOCC[N+](C)(C)C)C(C)(C)SSC(C)(C)[C@@H](C(=O)N[C@@H](Cc2ccc(-n3cc(CCN)nn3)cc2)C(=O)N[C@@H](Cc2ccc3ccccc3c2)C(=O)NC2(C(=O)N[C@@H](CCCCNC(C)=O)C(=O)N[C@@H](CC(N)=O)C(=O)N[C@@H](Cc3cccnc3)C(=O)N(C)CC(N)=O)CCOCC2)NC1=O [compound 522, cPEG3aCO-Pen(3)-N-T-7MeW-K(Ac)-Pen(3)-F(4TzlAme2)-2Nal-THP-K(Ac)-N-3Pya-Sar-CONH2] ({Me3N+(CH2)2O(CH2)2O(CH2)2CO}-[Pen]NT[Trp(7-Me)]K(Ac)[Pen][X39][2Nal][Thp]K(Ac)N[3Pal][Sar]-NH2; disulfide 1-6)
158 A^2 | 1.5 nM | CC(=O)N(C)CCCC[C@@H]1NC(=O)[C@H](Cc2c[nH]c3c(C)cccc23)NC(=O)[C@H]([C@@H](C)O)NC(=O)[C@H](CC(=O)N(C)C)NC(=O)[C@@H](NC(=O)CCOCCOCCNC(=N)N)C(C)(C)SSC(C)(C)[C@@H](C(=O)N[C@@H](Cc2ccc(OCCCCC[N+](C)(C)C)cc2)C(=O)N[C@@H](Cc2ccc3ccccc3c2)C(=O)NC2(C(=O)N[C@@H](CCCCN(C)C(C)=O)C(=O)N[C@@H](CC(N)=O)C(=O)N[C@@H](Cc3cccnc3)C(=O)N(C)CC(=O)N(C)C)CCOCC2)NC1=O [compound 391, cPEG3gCO-Pen(3)-N(N(Me)2)-T-7MeW-K(NMeAc)-Pen(3)-TMAPF-2Nal-THP-K(NMeAc)-N-3Pya-Sar-CON(Me)2] (X11-[Pen]D(NMe2)T[Trp(7-Me)][Lys(Me)](Ac)[Pen]Y(X3)[2Nal][Thp][Lys(Me)](Ac)N[3Pal][Sar]-NMe2; disulfide 1-6)
174 A^2 | 4.1 nM | CC(=O)NCCCC[C@@H]1NC(=O)[C@H](Cc2c[nH]c3c(C)cccc23)NC(=O)[C@H]([C@@H](C)O)NC(=O)[C@H](CC(N)=O)NC(=O)[C@@H](NC(=O)[C@@H](CCCNC(=N)N)NC(C)=O)C(C)(C)SSC(C)(C)[C@@H](C(=O)N[C@@H](Cc2ccc(OCCCCC[N+](C)(C)C)cc2)C(=O)N[C@@H](Cc2ccc3ccccc3c2)C(=O)NC2(C(=O)N[C@@H](CCCCNC(C)=O)C(=O)N[C@@H](CC(N)=O)C(=O)N[C@@H](Cc3cccnc3)C(=O)N(C)CC(N)=O)CCOCC2)NC1=O [compound 558, MeCO-r-Pen(3)-N-T-7MeW-K(Ac)-Pen(3)-TMAPF-2Nal-THP-K(Ac)-N-3Pya-Sar-CONH2] (Ac-[dR][Pen]NT[Trp(7-Me)]K(Ac)[Pen]Y(X3)[2Nal][Thp]K(Ac)N[3Pal][Sar]-NH2; disulfide 2-7)
165 A^2 | 5.7 nM | CC(=O)N(C)CCCC[C@H](NC(=O)[C@H](C)NC(=O)[C@H](Cc1ccc2ccccc2c1)NC(=O)[C@H](Cc1ccc(OCCCCC[N+](C)(C)C)cc1)NC(=O)[C@H]1NC(=O)[C@H](CCCCN(C)C(C)=O)NC(=O)[C@H](Cc2c[nH]c3c(C)cccc23)NC(=O)C([C@@H](C)O)NC(=O)[C@H](CC(=O)N(C)C)NC(=O)[C@@H](NC(=O)CCOCCOCC[N+](C)(C)C)C(C)(C)SSC1(C)C)C(=O)N[C@@H](CC(N)=O)C(=O)N[C@@H](Cc1cccnc1)C(=O)N(C)CC(=O)N(C)C (stereo partly drawn) [compound 488, cPEG3aCO-Pen(3)-N(N(Me)2)-T-7MeW-K(NMeAc)-Pen(3)-TMAPf-2Nal-A-K(NMeAc)-N-3Pya-Sar-CON(Me)2] ({Me3N+(CH2)2O(CH2)2O(CH2)2CO}-[Pen]D(NMe2)[ξThr(3R)][Trp(7-Me)][Lys(Me)](Ac)[Pen]Y(X3)[2Nal]A[Lys(Me)](Ac)N[3Pal][Sar]-NMe2; disulfide 1-6)
194 A^2 | 1.5 nM | CC(=O)NCCCC[C@@H]1NC(=O)[C@H](Cc2c[nH]c3c(-c4cccc(NC(C)=O)c4)cccc23)NC(=O)[C@H]([C@@H](C)O)NC(=O)[C@H](CC(N)=O)NC(=O)[C@@H](NC(=O)[C@@H](CCCC[N+](C)(C)C)NC(C)=O)C(C)(C)SSC(C)(C)[C@@H](C(=O)N[C@@H](Cc2ccc(OCCNC(=N)N)cc2)C(=O)N[C@@H](Cc2ccc3ccccc3c2)C(=O)NC2(C(=O)N[C@@H](CCC(=O)O)C(=O)N[C@@H](CC(N)=O)C(=O)N[C@@H](Cc3cccnc3)C(=O)N(C)CC(N)=O)CCOCC2)NC1=O [compound 563, MeCO-k(Me)3-Pen(3)-N-T-7(3NAcPh)W-K(Ac)-Pen(3)-AEF(G)-2Nal-THP-E-N-3Pya-Sar-CONH2] (Ac-[dLys(Me3)][Pen]NT[Trp(7-(3-AcNH-Ph))]K(Ac)[Pen]Y(Ethyl(2-guanidino))[2Nal][Thp]EN[3Pal][Sar]-NH2; disulfide 2-7)
